In brackets after ≈: the same amount, converted by molar mass.
Legend:
PBP4 = target: T1, PBP4 (Bacillus subtilis, UniProt P32959); experiment: biochemical; design: gene pbpE; commercial protein (Generon); protein thermal shift assay, melting temperature change of PBP4; conditions: read-out: Average DTm/°C
T1 sequence (P32959 1-451): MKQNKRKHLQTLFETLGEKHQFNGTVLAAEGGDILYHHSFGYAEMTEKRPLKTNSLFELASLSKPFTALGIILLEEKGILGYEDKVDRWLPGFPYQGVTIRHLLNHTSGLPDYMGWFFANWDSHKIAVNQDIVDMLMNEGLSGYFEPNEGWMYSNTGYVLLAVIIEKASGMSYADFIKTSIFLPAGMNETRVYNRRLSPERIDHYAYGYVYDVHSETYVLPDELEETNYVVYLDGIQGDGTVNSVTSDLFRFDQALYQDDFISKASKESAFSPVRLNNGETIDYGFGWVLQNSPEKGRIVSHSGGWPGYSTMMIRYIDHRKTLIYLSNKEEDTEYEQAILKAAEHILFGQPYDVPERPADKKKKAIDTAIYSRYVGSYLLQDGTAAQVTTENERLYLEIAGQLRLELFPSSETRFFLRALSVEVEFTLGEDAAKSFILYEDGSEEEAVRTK
Description: The thermal shift assay was carried out using the Protein Thermal Shift™ assay kit (Applied Biosystems). 3 μM of purified E. coli PBP3 was incubated with the β-lactam analogues at 300 μM concentration in a mixture containing the Protein Thermal Shift™ Dye. The samples were then heated in a StepOnePlus™ Real-Time PCR System from 25 to 95 °C at a rate of 1 °C min^−1. Tests were carried out in triplicate and the averages plotted as the negative first derivative vs. temperature. Reference wells, i.e. solutions consisting only of only PBP3 with dye, PBP3 only, and dye only, were used as controls. Melting temperature (Tm) values were determined with and without each compound, and the change in melting temperature (ΔTm) was obtained, Fig. 2. The thermal shift assay with PBP4 was carried out using the protocol described for PBP3, with the follow deriviatisation: 500 nM of purified Bacillus subtilis PBP4 was incubated with 50 μM of the β-lactam analogues. A thermal shift assay was used to investigate the binding of the cephalexin analogues to the therapeutic target, PBP, in vitro. This assay provides a fast and inexpensive method of detecting a ligand binding to a protein of interest. Briefly, the protein is gradually heated in the presence of a fluorescent dye that binds non-specifically to the hydrophobic surfaces. […]

S. aureus (NCTC 6571) = system: T2, S. aureus (NCTC 6571); design: species or system Staphylococcus aureus NCTC 6571; broth microdilution growth, OD600 after 16 h, MIC from GraphPad fit; conditions: 16 h
T2 construct: NCTC 6571
Description: Stock solutions of each compound were prepared in 50% DMSO/water at ×100 the final concentration. In a 96-well plate, 2 μL of the test compounds were added to each well. Each plate included the positive control (750 μg mL^−1 chloramphenicol), the negative control (50% DMSO/water) and media only wells. To each test well was then added 198 μL of the required bacteria stock (OD 0.05). E. coli assays were carried out using LB broth, S. aureus were carried out using tryptic soy broth (TSB). Plates were incubated at 37 °C and the OD600 was measured (Epoch 2 Microplate Spectrophotometer, BioTek) every 30 min over a 17 h period. Tests were carried out in triplicate, the background absorbance was removed using reference wells, and the averages were determined. Dose curves were plotting using the OD600 after 16 h growth vs. compound concentration. MICs were defined as the minimum concentration of compound at which no significant growth was observed after 16 h incubation. MIC values were determined using GraphPad Prism (version 8.3.0). The activity of 1–12 was investigated with growth assays against Staphylococcus aureus (NCTC 6571). S. aureus is a virulent Gram-positive pathogen that can cause a wide range of infections in humans.[29,30] Each compound was tested at 400–6 μM concentrations, with lower concentrations tested as required.

CC1(C)S[C@@H]2[C@H](NC(=O)Cc3ccccc3)C(=O)N2[C@H]1C(=O)O [compound 11, penicillin]
ΔTm at 50 µM (PBP4): -0.746 °C
MIC (best-fit) (S. aureus (NCTC 6571)): 0.0977 µM (≈ 0.0327 µg/mL)

Reference: PMC9056950, “Synthesis and biochemical evaluation of cephalosporin analogues equipped with chemical tethers” (RSC Advances, 2020)
